Source: US20230219956A1 (BETTA PHARMACEUTICALS CO.,LTD, priority 2019, published 2023)

Tests used:
MIA-PACA-2 cells = assay: Cell proliferation assay, MIA-PACA-2 cells (Cell-titer Glo); assay type: cell-based; conditions: Homo sapiens, 96 h incubation
How it was run: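 MIA-PACA-2 cells, 600 per well in ultra-low-attachment plates, exposed 96 h at 37 °C to compound at 0.025–10000 nM final (0.25% DMSO). Viability by CellTiter-Glo luminescence; inhibition normalised to DMSO and cell-free controls, IC50 from curve fit.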

H358 cells = assay: Cell proliferation assay, H358 cells (Cell-titer Glo); assay type: cell-based; conditions: Homo sapiens, NCI-H358, 96 h incubation
How it was run: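 H358 cells, 2000 per well in ultra-low-attachment plates, treated after overnight culture with compound at 10000 to 1.5 nM plus 0 (0.25% DMSO final) for 96 h at 37 °C, 5% CO2. Cell-titer Glo luminescence, normalised to DMSO and cell-free controls; IC50 from curve fit.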

C=CC(=O)N1CC2(CCN(c3nc(C4CCN(CCF)CC4)nc4c(OCC(F)(F)F)c(-c5c(C)ccc6[nH]ncc56)c(C=C)cc34)CC2)C1 [Example 75, 1-(7-(2-(1-(2-(fluoroethyl))piperidin-4-yl)-7-(5-methyl-1H-indazole-4-yl)-8-(2,2,2-trifluoroethoxy)-6-vinylquinazolin-4-yl)-2,7-diazarospiro [3.5]nonan-2-yl) propyl-2-en-1-one]
IC50 (MIA-PACA-2 cells): 3.6 nM
IC50 (H358 cells): 2.6 nM

C=CC(=O)N1CC2(CCN(c3nc(C4CCN(CC(C)(C)O)CC4)nc4c(OCC(F)(F)F)c(-c5c(C)ccc6[nH]ncc56)c(CC)cc34)CC2)C1 [Example 36, 1-(7-(6-ethyl-2-(1-(2-hydroxy-2-methylpropyl)piperidin-4-yl)-7-(5-methyl-1H-indazol-4-yl)-8-(2,2,2-trifluoroethoxy)quinazolin-4-yl)-2,7-diazaspiro[3.5]nonan-2-yl) prop-2-en-1-one]
IC50 (MIA-PACA-2 cells): 10.1 nM
IC50 (H358 cells): 10.6 nM

C=CC(=O)N1CC2(CCN(c3nc(C4CCN(C(C)CO)CC4)nc4c(OCC(F)(F)F)c(-c5c(C)ccc6[nH]ncc56)c(C=C)cc34)CC2)C1 (stereo not drawn) [Example 68, l-(7-(2-(l-(1-hydroxypropane-2-yl)piperidin-4-yl)-7-(5-methyl-1H-indazol-4-yl)-8-(2,2,2-trifluoroethoxy)-6-vinylquinazolin-4-yl)-2,7-diazspiro [3.5]nonan-2-yl) propyl-2-en-1-one]
IC50 (MIA-PACA-2 cells): 2.4 nM
IC50 (H358 cells): 1.6 nM

C=CC(=O)N1CC2(CCN(c3nc(C4CCN(C5CCN(C6CC6)CC5)CC4)nc4c(OCC(F)(F)F)c(-c5c(C)ccc6[nH]ncc56)c(C=C)cc34)CC2)C1 [Example 74, 1-(7-(2-(1′-cyclopropyl-[1,4′-bipiperidine]-4-yl)-7-(5-methyl-1H-indazole-4-yl)-8-(2,2,2-trifluoroethoxy)-6-vinylquinazolin-4-yl)-2,7-diazspiro [3.5]nonan-2-yl) propyl-2-en-1-one]
IC50 (MIA-PACA-2 cells): 10.3 nM
IC50 (H358 cells): 6.7 nM

C=CC(=O)N1CC2(C1)CN(c1nc(C3CCN(C)CC3)nc3c(OCC(F)(F)F)c(-c4c(C)ccc5[nH]ncc45)c(C=C)cc13)C2 [Example 50, 1-(6-(7-(5-methyl-1H-indazol-4-yl)-2-(1-methylpiperidin-4-yl)-8-(2,2,2-trifluoroethoxy)-6-vinylquinazolin-4-yl)-2,6-diazaspiro[3.3]heptane-2-yl)prop-2-en-1-one]
IC50 (MIA-PACA-2 cells): 278 nM
IC50 (H358 cells): 243 nM

C=CC(=O)N1CC2(CCN(c3nc(C4CCN(C)CC4)nc4c(OC)c(-c5c(C)ccc6[nH]ncc56)c(Cl)cc34)CC2)C1 [Example 12, 1-(7-(6-chloro-8-methoxy-7-(5-methyl-1H-indazol-4-yl)-2-(1-methylpiperidine-4-yl)-quinazolin-4-yl)-2,7-diazaspiro[3.5]nonan-2-yl)prop-2-en-1-one]
IC50 (MIA-PACA-2 cells): 107 nM
IC50 (H358 cells): 76.2 nM

C=CC(=O)N1CC2(CCN(c3nc(C4CCN(CC5CC(F)(F)C5)CC4)nc4c(OCC(F)(F)F)c(-c5c(C)ccc6[nH]ncc56)c(C=C)cc34)CC2)C1 [Example 76, 1-(7-(2-(1-((3,3-difluorocyclobutyl)methyl)piperidin-4-yl)-7-(5-methyl-1H-indazole-4-yl)-8-(2,2,2-trifluoroethoxy)-6-vinylquinazolin-4-yl)-2,7-diazspiro [3.5]nonan-2-yl) propyl-2-en-1-one]
IC50 (MIA-PACA-2 cells): 21.4 nM
IC50 (H358 cells): 19.3 nM

C=Cc1cc2c(N3CCC4(CC3)CN(C(=O)C(=C)F)C4)nc(C3CCN(C)CC3)nc2c(OCC(F)(F)F)c1-c1c(C)ccc2[nH]ncc12 [Example 84, 2-Fluoro-1-(7-(7-(5-methyl-1H-indazol-4-yl)-2-(1-methylpiperidin-4-yl)-8-(2,2,2-trifluoroethoxy)-6-vinylquinazolin-4-yl)-2,7-diazaspiro[3.5]nonan-2-yl)propan-2-en-1-one]
IC50 (MIA-PACA-2 cells): 60.3 nM
IC50 (H358 cells): 16.5 nM

C=CC(=O)N1CC2(CCN(c3nc(C4CCN(C5CCC(C#N)CC5)CC4)nc4c(OCC(F)(F)F)c(-c5c(C)ccc6[nH]ncc56)c(C=C)cc34)CC2)C1 (stereo not drawn) [Example 67, 4-(4-(4-(2-acryloyl-2,7-diazazospiro [3.5]nonan-7-yl)-7-(5-methyl-1H-indazole-4-yl)-8-(2,2,2-trifluoroethoxy)-6-vinylquinazolin-2-yl)piperidin-1-yl) cyclohexane-1-methylnitrile]
IC50 (MIA-PACA-2 cells): 6.9 nM
IC50 (H358 cells): 4.6 nM

C=CC(=O)N1CCC2(CC1)CN(c1nc(C3CCN(C)CC3)nc3c(OCC(F)(F)F)c(-c4c(C)ccc5[nH]ncc45)c(C=C)cc13)C2 [Example 51, 1-(2-(7-(5-methyl-1H-indazol-4-yl)-2-(1-methylpiperidin-4-yl)-8-(2,2,2-trifluoroethoxy)-6-vinylquinazolin-4-yl)-2,7-diazspiro [3.5]nonan-2-yl) propyl-2-en-1-one]
IC50 (MIA-PACA-2 cells): 188 nM
IC50 (H358 cells): 462 nM

C=CC(=O)N1CC2(CCN(c3nc(C4CN(CC(C)(C)O)C4)nc4c(OCC(F)(F)F)c(-c5c(C)ccc6[nH]ncc56)c(CC)cc34)CC2)C1 [Example 38, 1-(7-(6-ethyl-2-(1-(2-hydroxy-2-methylpropyl)azetidin-3-yl)-7-(5-methyl-1H-indazol-4-yl)-8-(2,2,2-trifluoroethoxy)quinazolin-4-yl)-2,7-diazaspiro[3.5]nonan 2-yl) prop-2-en-1-one]
IC50 (MIA-PACA-2 cells): 74.2 nM
IC50 (H358 cells): 59.3 nM

C=CC(=O)N1CCN(c2nc(C3CCN(C)CC3)nc3c(OCC(F)(F)F)c(-c4c(C)ccc5[nH]ncc45)c(C=C)cc23)[C@@H](C)C1 [Example 52, 1-((3S)-3-methyl-4-(7-(5-methyl-1H-indazole-4-yl)-2-(1-methylpiperidin-4-yl)-8-(2,2,2-trifluoroethoxy)-6-vinylquinazolin-4-yl)piperazin-1-yl) propyl-2-en-1-one]
IC50 (MIA-PACA-2 cells): 114 nM
IC50 (H358 cells): 104 nM

C=CC(=O)N1CC2(CCN(c3nc(C4CN(C5COC5)C4)nc4c(OCC(F)(F)F)c(-c5c(C)ccc6[nH]ncc56)c(CC)cc34)CC2)C1 [Example 40, 1-(7-(6-ethyl-7-(5-methyl-1H-indazole-4-yl)-2-(1-(oxacyclobutan-3-yl)azacyclobutane-3-yl)-8-(2,2,2-trifluoroethoxy)quinazolin-4-yl) 2,7-diazspiro [3.5]nonan-2-yl) propyl-2-en-1-one]
IC50 (MIA-PACA-2 cells): 47.7 nM
IC50 (H358 cells): 39 nM

C=CC(=O)N1CC2(CCN(c3nc(C4CCN(CC)CC4)nc4c(OCC(F)(F)F)c(-c5c(C)ccc6[nH]ncc56)c(C=C)cc34)CC2)C1 [Example 9, 1-(7-(2-(1-ethylpiperidin-4-yl)-7-(5-methyl-1H-indazol-4-yl)-8-(2,2,2-trifluoroethoxy)-6-vinylquinazolin-4-yl)-2,7-diazaspiro[3.5]nonan-2-yl)prop-2-en-1-one]
IC50 (MIA-PACA-2 cells): 2.1 nM
IC50 (H358 cells): 3.7 nM

Cc1ccc2[nH]ncc2c1-c1c(Cl)cc2c(N3CCC4(CC3)CN(C(=O)/C=C/CN(C)C)C4)nc(C3CCN(C)CC3)nc2c1OCC(F)(F)F [Example 87, (E)-1-(7-(6-chloro-7-(5-methyl-1H-indazol-4-yl)-2-(1-methylpiperidine-4-yl)-8-(2,2,2-trifluoroethoxy)quinazolin-4-yl)-2,7-diazaspiro[3.5]nonan-2-yl)-4-(dimethylamino) but-2-en-1-one]
IC50 (MIA-PACA-2 cells): 2190 nM
IC50 (H358 cells): 1940 nM
